Assay results from ChEMBL document CHEMBL5344409, “Discovery of pan-IAP degraders via a CRBN recruiting mechanism” (2023).
Calls of active or inactive are those of the source.

Assays:
[1] = target: T1, Protein cereblon/Baculoviral IAP repeat-containing protein 3 (Homo sapiens) (UniProt Q13489+Q96SW2); experiment: Binding affinity to CRBN/cIAP2 in human HEK293T cells assessed as ternary complex formation at 1 uM measured after 6 hrs by immunoprecipitation analysis; type: cell-based
MDA-MB-231 [2] = experiment: Inhibition of TNFalpha-induced cell invasion in human MDA-MB-231 cells at 0.1 uM measured after 24 hrs in presence of TNFalpha by transwell assay; type: functional, cell-based
MDA-MB-231 [3] = experiment: Inhibition of TNFalpha-induced cell migration in human MDA-MB-231 cells at 0.1 uM measured after 24 hrs in presence of TNFalpha by transwell assay; type: functional, cell-based
[4] = target: T2, Protein cereblon-IAP (Homo sapiens) (UniProt P98170+Q13489+Q13490+Q96SW2); experiment: PROTAC activity at CRBN/IAP in human MCF7 cells assessed as inhibition of TNFalpha-induced NFkappaB activation by measuring decrease in IKKalpha/beta phosphorylation at 0.1 uM pretreated for 2 hrs followed by stimulation with TNF-alpha for 3 mins by western blot analysis; type: cell-based; settings: time 123.0 min
T2 sequence (P98170 whole entry, looked up): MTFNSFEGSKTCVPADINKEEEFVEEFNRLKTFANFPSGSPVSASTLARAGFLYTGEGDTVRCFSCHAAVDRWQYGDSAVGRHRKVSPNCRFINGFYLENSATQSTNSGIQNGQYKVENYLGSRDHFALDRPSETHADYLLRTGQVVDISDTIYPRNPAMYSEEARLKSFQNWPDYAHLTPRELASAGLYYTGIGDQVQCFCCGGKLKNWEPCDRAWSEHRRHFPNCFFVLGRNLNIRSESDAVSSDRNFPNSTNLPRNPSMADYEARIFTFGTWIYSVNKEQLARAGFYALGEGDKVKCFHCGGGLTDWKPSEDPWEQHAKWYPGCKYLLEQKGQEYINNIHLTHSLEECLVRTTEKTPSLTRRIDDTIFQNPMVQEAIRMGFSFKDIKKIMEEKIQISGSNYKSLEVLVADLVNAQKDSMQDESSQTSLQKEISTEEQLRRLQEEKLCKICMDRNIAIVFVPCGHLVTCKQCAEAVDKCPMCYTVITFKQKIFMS
T2 sequence (Q13489 whole entry, looked up): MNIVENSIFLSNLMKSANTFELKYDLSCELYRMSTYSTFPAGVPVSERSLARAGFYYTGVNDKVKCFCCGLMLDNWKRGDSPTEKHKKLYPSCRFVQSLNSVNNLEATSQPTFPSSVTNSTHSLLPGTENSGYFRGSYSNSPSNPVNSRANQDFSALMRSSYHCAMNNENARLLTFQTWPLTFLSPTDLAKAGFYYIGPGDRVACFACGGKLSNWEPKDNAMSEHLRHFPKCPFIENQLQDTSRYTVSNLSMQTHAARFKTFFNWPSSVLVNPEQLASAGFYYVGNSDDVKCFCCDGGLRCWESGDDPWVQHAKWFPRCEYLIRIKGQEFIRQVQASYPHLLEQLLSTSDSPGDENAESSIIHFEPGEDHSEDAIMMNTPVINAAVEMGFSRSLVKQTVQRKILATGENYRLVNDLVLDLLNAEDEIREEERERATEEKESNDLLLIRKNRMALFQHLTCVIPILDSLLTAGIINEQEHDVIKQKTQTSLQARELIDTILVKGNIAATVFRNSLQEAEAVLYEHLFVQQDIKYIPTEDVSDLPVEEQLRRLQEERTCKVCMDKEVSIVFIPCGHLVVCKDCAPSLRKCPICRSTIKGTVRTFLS
T2 sequence (Q13490 whole entry, looked up): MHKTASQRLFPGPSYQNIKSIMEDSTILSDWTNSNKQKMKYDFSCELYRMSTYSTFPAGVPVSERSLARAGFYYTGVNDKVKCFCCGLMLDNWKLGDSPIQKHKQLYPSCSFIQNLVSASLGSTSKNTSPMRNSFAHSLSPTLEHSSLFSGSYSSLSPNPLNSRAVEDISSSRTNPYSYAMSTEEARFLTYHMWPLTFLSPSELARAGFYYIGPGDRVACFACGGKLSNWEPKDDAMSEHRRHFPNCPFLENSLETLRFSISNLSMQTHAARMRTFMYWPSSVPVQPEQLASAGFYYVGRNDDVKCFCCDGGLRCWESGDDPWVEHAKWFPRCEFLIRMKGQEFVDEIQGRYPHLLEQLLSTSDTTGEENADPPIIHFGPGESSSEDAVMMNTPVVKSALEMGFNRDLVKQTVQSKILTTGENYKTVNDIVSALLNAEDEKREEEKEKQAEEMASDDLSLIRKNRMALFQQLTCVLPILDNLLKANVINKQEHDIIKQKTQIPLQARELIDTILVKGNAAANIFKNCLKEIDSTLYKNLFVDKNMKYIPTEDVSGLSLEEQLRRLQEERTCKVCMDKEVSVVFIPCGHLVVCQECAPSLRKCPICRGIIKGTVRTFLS
T2 sequence (Q96SW2 whole entry, looked up): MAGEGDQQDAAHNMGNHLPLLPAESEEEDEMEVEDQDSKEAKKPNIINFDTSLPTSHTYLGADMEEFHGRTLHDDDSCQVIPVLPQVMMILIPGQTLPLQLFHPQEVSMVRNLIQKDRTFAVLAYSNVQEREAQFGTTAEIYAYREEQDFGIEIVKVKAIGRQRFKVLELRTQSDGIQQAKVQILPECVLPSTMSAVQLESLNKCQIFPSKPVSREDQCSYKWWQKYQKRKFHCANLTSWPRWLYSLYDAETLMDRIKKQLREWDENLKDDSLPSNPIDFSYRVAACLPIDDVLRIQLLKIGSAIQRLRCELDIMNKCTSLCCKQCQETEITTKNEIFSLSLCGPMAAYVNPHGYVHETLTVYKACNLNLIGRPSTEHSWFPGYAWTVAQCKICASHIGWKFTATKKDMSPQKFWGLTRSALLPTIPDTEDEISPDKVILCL

[5] = target: T2, Protein cereblon-IAP (Homo sapiens); experiment: PROTAC activity at CRBN/IAP in human MCF7 cells assessed as inhibition of TNFalpha-induced NFkappaB activation by measuring decrease in p65 phosphorylation at 0.1 uM pretreated for 2 hrs followed by stimulation with TNF-alpha for 3 mins by western blot analysis; type: cell-based; settings: time 123.0 min
[6] = target: Baculoviral IAP repeat-containing protein 2 (Homo sapiens) (UniProt Q13490); experiment: Induction of cIAP1 degradation in human MCF7 cells at 0.1 uM measured after 18 hrs by western blot analysis; type: cell-based
Sequence of Baculoviral IAP repeat-containing protein 2 (Homo sapiens) (Q13490 whole entry): as the sequence (Q13490 whole entry, looked up) above

[7] = target: T1, Protein cereblon/Baculoviral IAP repeat-containing protein 3 (Homo sapiens); experiment: PROTAC activity at CRBN/cIAP2 in human MCF7 cells assessed as induction of cIAP2 degradation at 0.1 to 10 uM measured after 18 hrs by western blot analysis; type: cell-based; settings: dose 0.1-10 µM
MDA-MB-157 [8] = experiment: Inhibition of TNFalpha-induced cell invasion in human MDA-MB-157 cells at 0.1 uM measured after 24 hrs in presence of TNFalpha by transwell assay; type: functional, cell-based
MCF7 [9] = experiment: Induction of apoptosis in human MCF7 cells assessed as increase in PARP cleavage at 0.1 uM measured after 18 hrs by western blot analysis; type: functional, cell-based
MCF7 [10] = experiment: Inhibition of TNFalpha-induced cytokine mRNA expression in human MCF7 cells assessed as decrease in TNF-alpha mRNA level by quantitative real-time PCR analysis; type: functional, cell-based
MCF7 [11] = experiment: Inhibition of TNFalpha-induced cytokine mRNA expression in human MCF7 cells assessed as decrease in IL-6 mRNA level by quantitative real-time PCR analysis; type: functional, cell-based
[12] = target: Baculoviral IAP repeat-containing protein 3 (Homo sapiens) (UniProt Q13489); experiment: Induction of […] degradation in human MCF7 cells transfected with CRBN siRNA at 0.01 to 1 uM measured after 18 hrs by western blot analysis; type: cell-based; settings: dose 0.01-1 µM
Sequence of Baculoviral IAP repeat-containing protein 3 (Homo sapiens) (Q13489 whole entry): as the sequence (Q13489 whole entry, looked up) above

MCF7 [13] = experiment: Cytotoxicity against human MCF7 cells assessed as reduction in cell viability at 1 uM measured after 24 hrs in presence of TNF-alpha by CellTiter-Glo luminescent assay; type: functional, cell-based
[14] = target: T3, Protein cereblon/E3 ubiquitin-protein ligase XIAP (Homo sapiens) (UniProt P98170+Q96SW2); experiment: PROTAC activity at CRBN/XIAP in human MCF7 cells assessed as induction of XIAP degradation at 1 uM measured after 6 hrs in presence of proteasome inhibitor, MG132 by western blot analysis; type: cell-based
T3 sequence (P98170 whole entry, looked up): as the sequence (P98170 whole entry, looked up) above
T3 sequence (Q96SW2 whole entry, looked up): as the sequence (Q96SW2 whole entry, looked up) above

MCF7 [15] = experiment: Induction of apoptosis in human MCF7 cells assessed as increase in caspase 3/7 activity at 0.01 to 1 uM measured after 18 hrs by Caspase-Glo reagent based luminescence analysis; type: functional, cell-based; settings: dose 0.01-1 µM
[16] = target: Protein cereblon (Homo sapiens) (UniProt Q96SW2); experiment: Induction of CRBN degradation in human MCF7 cells by western blot analysis; type: cell-based
Sequence of Protein cereblon (Homo sapiens) (Q96SW2 whole entry): as the sequence (Q96SW2 whole entry, looked up) above

SK-OV-3 = experiment: Cytotoxicity against human SK-OV-3 cells assessed as inhibition of cell growth measured after 72 hrs by CellTiter-Glo luminescent assay; type: functional, cell-based
[17] = target: E3 ubiquitin-protein ligase XIAP (Homo sapiens) (UniProt P98170); experiment: Induction of XIAP degradation in human MCF7 cells transfected with CRBN siRNA at 0.01 to 1 uM measured after 18 hrs by western blot analysis; type: cell-based; settings: dose 0.01-1 µM
Sequence of E3 ubiquitin-protein ligase XIAP (Homo sapiens) (P98170 whole entry): as the sequence (P98170 whole entry, looked up) above

[18] = target: T1, Protein cereblon/Baculoviral IAP repeat-containing protein 3 (Homo sapiens); experiment: PROTAC activity at CRBN/cIAP2 in human MCF7 cells at 1 uM measured after 4 hrs by TMT-labeling based LC-MS/MS analysis; type: cell-based
MCF7 [19] = experiment: Induction of apoptosis in human MCF7 cells assessed as increase in caspase-7 cleavage at 1 uM measured after 6 hrs in presence of TNF-alpha by western blot analysis; type: functional, cell-based
[20] = target: T3, Protein cereblon/E3 ubiquitin-protein ligase XIAP (Homo sapiens); experiment: PROTAC activity at CRBN/XIAP in human MCF7 cells assessed as induction of XIAP degradation at 0.1 uM measured after 18 hrs by western blot analysis; type: cell-based
[21] = target: T3, Protein cereblon/E3 ubiquitin-protein ligase XIAP (Homo sapiens); experiment: PROTAC activity at CRBN/XIAP in human MCF7 cells assessed as induction of XIAP degradation at 0.1 uM measured within 1 hr by western blot analysis; type: cell-based
[22] = target: Baculoviral IAP repeat-containing protein 2 (Homo sapiens) (UniProt Q13490); experiment: Induction of cIAP1 degradation in human MCF7 cells at 1 uM measured after 18 hrs by western blot analysis; type: cell-based
[23] = target: T2, Protein cereblon-IAP (Homo sapiens); experiment: PROTAC activity at CRBN/IAP in human MCF7 cells assessed as inhibition of TNFalpha-induced NFkappaB activation by measuring decrease in p38 phosphorylation at 0.1 uM pretreated for 2 hrs followed by stimulation with TNF-alpha for 3 mins by western blot analysis; type: cell-based; settings: time 123.0 min
MCF7 [24] = experiment: Induction of apoptosis in human MCF7 cells assessed as increase in total apoptotic cells at 1 uM measured after 48 hrs by AnnexinV-FITC/PI staining based flow cytometry; type: functional
[25] = target: T3, Protein cereblon/E3 ubiquitin-protein ligase XIAP (Homo sapiens); experiment: PROTAC activity at CRBN/XIAP in human MCF7 cells assessed as protein abundance at 1 uM measured after 4 hrs by TMT-labeling based LC-MS/MS analysis; type: cell-based
MCF7 [26] = experiment: Inhibition of TNFalpha-induced cytokine secretion in human MCF7 cells assessed as decrease in IL-6 level at 0.1 uM measured after 4 hrs by ELISA; type: functional, cell-based
[27] = target: Baculoviral IAP repeat-containing protein 2 (Homo sapiens) (UniProt Q13490); experiment: Induction of cIAP1 degradation in human MCF7 cells transfected with CRBN siRNA at 0.01 to 1 uM measured after 18 hrs by western blot analysis; type: cell-based; settings: dose 0.01-1 µM
MCF7 [28] = experiment: Inhibition of TNFalpha-induced vimentin protein expression in human MCF7 cells by western blot analysis; type: functional, cell-based
[29] = target: T1, Protein cereblon/Baculoviral IAP repeat-containing protein 3 (Homo sapiens); experiment: PROTAC activity at CRBN/cIAP2 in human MCF7 cells assessed as induction of cIAP2 degradation at 1 uM measured after 6 hrs in presence of proteasome inhibitor, MG132 by western blot analysis; type: cell-based
[30] = target: T3, Protein cereblon/E3 ubiquitin-protein ligase XIAP (Homo sapiens); experiment: PROTAC activity at CRBN/XIAP in human MCF7 cells assessed as induction of XIAP degradation at 0.1 to 10 uM measured after 18 hrs by western blot analysis; type: cell-based; settings: dose 0.1-10 µM
MCF7 [31] = experiment: Inhibition of TNFalpha-induced E-cadherin protein expression in human MCF7 cells by western blot analysis; type: functional, cell-based
MDA-MB-157 [32] = experiment: Inhibition of TNFalpha-induced cell migration in human MDA-MB-157 cells at 0.1 uM measured after 24 hrs in presence of TNFalpha by transwell assay; type: functional, cell-based

T1 sequence (Q13489 whole entry, looked up): as the sequence (Q13489 whole entry, looked up) above
T1 sequence (Q96SW2 whole entry, looked up): as the sequence (Q96SW2 whole entry, looked up) above

CN[C@@H](C)C(=O)N[C@H](C(=O)N1Cc2cc(OCCCCCCCCNC(=O)C3CN(c4ccc5c(c4)C(=O)N(C4CCC(=O)NC4=O)C5=O)C3)ccc2C[C@H]1C(=O)N[C@@H]1CCCc2ccccc21)C(C)(C)C (stereo partly drawn)
99%: Activity [20]
87%: Activity [6]
> 90%: Activity [21]
> 2: fold change (FC) [25]
46%: Activity (MCF7 [24])
90%: Activity [22]
active: Activity [1] | inhibition (MDA-MB-231 [2]) | inhibition (MDA-MB-231 [3]) | Activity [4] | Activity [5] | Activity [7] | inhibition (MDA-MB-157 [8]) | Activity (MCF7 [9]) | inhibition (MCF7 [10]) | inhibition (MCF7 [11]) | Activity (MCF7 [13]) | Activity (MCF7 [15]) | Activity (SK-OV-3) | Activity [18] | Activity (MCF7 [19]) | Activity [23] | inhibition (MCF7 [26]) | Activity [27] | inhibition (MCF7 [28]) | Activity [30] | inhibition (MCF7 [31]) | inhibition (MDA-MB-157 [32])
inactive: Activity [12] | Activity [14] | Activity [16] | Activity [17] | Activity [29]
